Source: PubChem BioAssay (NCI)
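In this assay, cells in 96-well plates receive the compound at five concentrations for 48 hours. Endpoints are linearly interpolated between the surrounding concentrations. At the TGI there is no net growth.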

Columns and labels:
Assay in all cases: inhibition of tumour cell growth, NCI panel, 48 h
A549 NSCLC = tested on: A549 NSCLC
A498 renal = tested on: A498 renal
SK-MEL-2 melanoma = tested on: SK-MEL-2 melanoma
NCI-H226 lung = tested on: NCI-H226 lung
TK-10 renal = tested on: TK-10 renal
SN12C renal = tested on: SN12C renal
T-47D breast = tested on: T-47D breast
786-0 renal = tested on: 786-0 renal
UACC-62 melanoma = tested on: UACC-62 melanoma
HCT-116 colon = tested on: HCT-116 colon
MCF7 breast = tested on: MCF7 breast
SR leukemia = tested on: SR leukemia
COLO 205 colon = tested on: COLO 205 colon
SNB-75 CNS = tested on: SNB-75 CNS
HT29 colon = tested on: HT29 colon
MDA-MB-435 = tested on: MDA-MB-435
SNB-19 CNS = tested on: SNB-19 CNS
SF-539 CNS = tested on: SF-539 CNS
BT-549 breast = tested on: BT-549 breast
NCI/ADR-RES ovarian = tested on: NCI/ADR-RES ovarian
OVCAR-4 ovarian = tested on: OVCAR-4 ovarian
M14 melanoma = tested on: M14 melanoma
UACC-257 melanoma = tested on: UACC-257 melanoma
CAKI-1 renal = tested on: CAKI-1 renal
UO-31 renal = tested on: UO-31 renal
NCI-H460 lung = tested on: NCI-H460 lung
K-562 leukemia = tested on: K-562 leukemia
OVCAR-8 ovarian = tested on: OVCAR-8 ovarian
MDA-MB-231 breast = tested on: MDA-MB-231 breast
RPMI-8226 leukemia = tested on: RPMI-8226 leukemia
HCT-15 colon = tested on: HCT-15 colon
LOX IMVI melanoma = tested on: LOX IMVI melanoma
SK-MEL-28 melanoma = tested on: SK-MEL-28 melanoma
DU-145 prostate = tested on: DU-145 prostate
OVCAR-3 ovarian = tested on: OVCAR-3 ovarian
PC-3 prostate = tested on: PC-3 prostate
U251 CNS = tested on: U251 CNS
SF-295 CNS = tested on: SF-295 CNS
SF-268 CNS = tested on: SF-268 CNS
MALME-3M melanoma = tested on: MALME-3M melanoma
MDA-N = tested on: MDA-N
ACHN renal = tested on: ACHN renal
NCI-H522 lung = tested on: NCI-H522 lung
SK-OV-3 ovarian = tested on: SK-OV-3 ovarian
HOP-92 NSCLC = tested on: HOP-92 NSCLC
MOLT-4 leukemia = tested on: MOLT-4 leukemia
SW-620 colon = tested on: SW-620 colon
NCI-H23 lung = tested on: NCI-H23 lung
HOP-62 NSCLC = tested on: HOP-62 NSCLC
EKVX NSCLC = tested on: EKVX NSCLC
SK-MEL-5 melanoma = tested on: SK-MEL-5 melanoma
HL-60(TB) leukemia = tested on: HL-60(TB) leukemia
CCRF-CEM leukemia = tested on: CCRF-CEM leukemia
HCC-2998 colon = tested on: HCC-2998 colon
KM12 colon = tested on: KM12 colon
OVCAR-5 ovarian = tested on: OVCAR-5 ovarian
RXF 393 renal = tested on: RXF 393 renal
HS 578T breast = tested on: HS 578T breast
IGROV1 ovarian = tested on: IGROV1 ovarian

`CCOP(=O)(O)C(Nc1ccc(N=Nc2ccccc2)cc1)c1ccc(C(Nc2ccc(N=Nc3ccccc3)cc2)P(=O)(O)OCC)cc1` (stereo not drawn) gave a TGI (A549 NSCLC) of 88.7 µM, a TGI (A498 renal) of 64.8 µM and a TGI (SK-MEL-2 melanoma) of 32.8 µM. It also gave a TGI (NCI-H226 lung) of 99.2 µM, a TGI (TK-10 renal) greater than 100 µM and a TGI (SN12C renal) of 46.3 µM. For the same compound, the TGI (T-47D breast) was 47.1 µM, the TGI (786-0 renal) was 78.5 µM and the TGI (UACC-62 melanoma) was 35 µM. The TGI (HCT-116 colon) was 39.5 µM, the TGI (MCF7 breast) was greater than 100 µM and the TGI (SR leukemia) was 42.6 µM. It also gave a TGI (COLO 205 colon) of 28.8 µM, a TGI (SNB-75 CNS) of 34.5 µM and a TGI (HT29 colon) of 33.8 µM. For the same compound, the TGI (MDA-MB-435) was 32.4 µM, the TGI (SNB-19 CNS) was 41.2 µM and the TGI (SF-539 CNS) was 38.2 µM. For the same compound, the TGI (BT-549 breast) was 49.2 µM, the TGI (NCI/ADR-RES ovarian) was 73 µM and the TGI (OVCAR-4 ovarian) was greater than 100 µM. For the same compound, the TGI (M14 melanoma) was 29.6 µM, the TGI (UACC-257 melanoma) was 70.1 µM and the TGI (CAKI-1 renal) was greater than 100 µM. For the same compound, the TGI (UO-31 renal) was greater than 100 µM, the TGI (NCI-H460 lung) was 50.3 µM and the TGI (K-562 leukemia) was 35.7 µM. It also gave a TGI (OVCAR-8 ovarian) of 31.4 µM, a TGI (MDA-MB-231 breast) of 90.9 µM and a TGI (RPMI-8226 leukemia) of 53.8 µM. The TGI (HCT-15 colon) was 47.9 µM, the TGI (LOX IMVI melanoma) was 29.6 µM and the TGI (SK-MEL-28 melanoma) was 33.5 µM. For the same compound, the TGI (DU-145 prostate) was greater than 100 µM, the TGI (OVCAR-3 ovarian) was greater than 100 µM and the TGI (PC-3 prostate) was 35.7 µM. For the same compound, the TGI (U251 CNS) was 33.5 µM, the TGI (SF-295 CNS) was 35 µM and the TGI (SF-268 CNS) was 42.9 µM. For the same compound, the TGI (MALME-3M melanoma) was 32.2 µM, the TGI (MDA-N) was 40.8 µM and the TGI (ACHN renal) was greater than 100 µM. For the same compound, the TGI (NCI-H522 lung) was 37.6 µM, the TGI (SK-OV-3 ovarian) was 36.8 µM and the TGI (HOP-92 NSCLC) was 95.1 µM. The TGI (MOLT-4 leukemia) was 37.2 µM, the TGI (SW-620 colon) was 38.2 µM and the TGI (NCI-H23 lung) was 64.2 µM. The TGI (HOP-62 NSCLC) was 36.3 µM, the TGI (EKVX NSCLC) was 41 µM and the TGI (SK-MEL-5 melanoma) was 30.7 µM. For the same compound, the TGI (HL-60(TB) leukemia) was 37 µM, the TGI (CCRF-CEM leukemia) was 41.6 µM and the TGI (HCC-2998 colon) was 34.3 µM. The TGI (KM12 colon) was 31 µM, the TGI (OVCAR-5 ovarian) was 53.7 µM and the TGI (RXF 393 renal) was 49.3 µM. The TGI (HS 578T breast) was 46.8 µM and the TGI (IGROV1 ovarian) was 47.8 µM.
`O=C(O)c1cc(C(=O)O)nc(C(=O)O)c1` showed a TGI (A549 NSCLC) greater than 100 µM, a TGI (A498 renal) greater than 100 µM and a TGI (SK-MEL-2 melanoma) greater than 100 µM. It also gave a TGI (NCI-H226 lung) greater than 100 µM, a TGI (TK-10 renal) greater than 100 µM and a TGI (SN12C renal) greater than 100 µM. The TGI (T-47D breast) was greater than 100 µM, the TGI (786-0 renal) was greater than 100 µM and the TGI (UACC-62 melanoma) was greater than 100 µM. It also gave a TGI (HCT-116 colon) greater than 100 µM, a TGI (MCF7 breast) greater than 100 µM and a TGI (SR leukemia) greater than 100 µM. The TGI (COLO 205 colon) was greater than 100 µM, the TGI (SNB-75 CNS) was greater than 100 µM and the TGI (HT29 colon) was greater than 100 µM. For the same compound, the TGI (MDA-MB-435) was greater than 100 µM, the TGI (SNB-19 CNS) was greater than 100 µM and the TGI (SF-539 CNS) was greater than 100 µM. The TGI (BT-549 breast) was greater than 100 µM, the TGI (NCI/ADR-RES ovarian) was greater than 100 µM and the TGI (OVCAR-4 ovarian) was greater than 100 µM. For the same compound, the TGI (M14 melanoma) was greater than 100 µM, the TGI (UACC-257 melanoma) was greater than 100 µM and the TGI (CAKI-1 renal) was greater than 100 µM. It also gave a TGI (UO-31 renal) greater than 100 µM, a TGI (NCI-H460 lung) greater than 100 µM and a TGI (K-562 leukemia) greater than 100 µM. For the same compound, the TGI (OVCAR-8 ovarian) was greater than 100 µM, the TGI (MDA-MB-231 breast) was greater than 100 µM and the TGI (RPMI-8226 leukemia) was greater than 100 µM. It also gave a TGI (HCT-15 colon) greater than 100 µM, a TGI (LOX IMVI melanoma) greater than 100 µM and a TGI (SK-MEL-28 melanoma) greater than 100 µM. The TGI (DU-145 prostate) was greater than 100 µM, the TGI (OVCAR-3 ovarian) was greater than 100 µM and the TGI (PC-3 prostate) was greater than 100 µM. The TGI (U251 CNS) was greater than 100 µM, the TGI (SF-295 CNS) was greater than 100 µM and the TGI (SF-268 CNS) was greater than 100 µM. It also gave a TGI (MALME-3M melanoma) greater than 100 µM, a TGI (MDA-N) greater than 100 µM and a TGI (ACHN renal) greater than 100 µM. The TGI (NCI-H522 lung) was greater than 100 µM, the TGI (SK-OV-3 ovarian) was greater than 100 µM and the TGI (HOP-92 NSCLC) was greater than 100 µM. It also gave a TGI (MOLT-4 leukemia) greater than 100 µM, a TGI (SW-620 colon) greater than 100 µM and a TGI (NCI-H23 lung) greater than 100 µM. The TGI (HOP-62 NSCLC) was greater than 100 µM, the TGI (EKVX NSCLC) was greater than 100 µM and the TGI (SK-MEL-5 melanoma) was greater than 100 µM. For the same compound, the TGI (HL-60(TB) leukemia) was greater than 100 µM, the TGI (CCRF-CEM leukemia) was greater than 100 µM and the TGI (HCC-2998 colon) was greater than 100 µM. For the same compound, the TGI (KM12 colon) was greater than 100 µM, the TGI (OVCAR-5 ovarian) was greater than 100 µM and the TGI (RXF 393 renal) was greater than 100 µM. For the same compound, the TGI (HS 578T breast) was greater than 100 µM and the TGI (IGROV1 ovarian) was greater than 100 µM.
